Measured values: patent US4918099A, “Drug, preparation and use thereof” (priority 1985, dated 1990)
“Also recorded” adds a separate entry of the source.

Key:
[1] = test system: erythrocyte deformability; experiment: Erythrocyte deformability (filtration rate of blood); assay type: in vivo, rats
Procedure: (§1) Increased blood viscosity and reduced erythrocyte deformability are typical pathological states of diabetic subjects. The effect of brazilin administration to diabetic laboratory animals (rats) on the blood viscosity and erythrocyte deformability of these animals was examined.
(§2) For administering brazilin, the laboratory animals were daily injected intraperitoneally with a dose of 100 mg of brazilin per kg body weight for 10 days. For inducing diabetes, a dose of 175 mg of alloxan per kg body weight was administered intraperitoneally.
For determining the erythrocyte deformability, the filtration rate of blood of the various laboratory animals containing approximately 4.9×10^12 erythrocytes per l was determined under common, standardized conditions.

[2] = test system: prostacyclin production; experiment: Prostacyclin production (6-keto PGF alpha); assay type: in vivo, rats
Procedure: (§3) If an inhibiting action on MDA is detectable but no significant influence on the prostacyclin production can be detected, a selective inhibiting action on thromboxane A2 may be inferred.
(§4) Rats were divided into four test groups, viz.
(§5) Group B: Normal rats (8 laboratory animals) to which an aqueous brazilin solution (comprising 110 mg of brazilin per kg body weight) was daily administered from the 20th to the 30th day
(§6) Group D: Diabetic rats (10 laboratory animals); for inducing diabetes, a dose of 70 mg of streptozotocin per kg body weight in 0.1M citrate buffer solution (pH 4.0) was administered intraperitoneally to normal rats on the 1st test day. From the 20th to the 30th day of the test aqueous brazilin solution (comprising 110 mg of brazilin per kg body weight) was daily administered orally to these diabetic rats. (Instead of an aqueous brazilin solution, the same amount of distilled water was administered to the laboratory animals of the groups A and C from the 20th to the 30th day.)
(§7) After expiration of the 30th test day, the test animals were sacrificed, and the MDA production was determined by means of thrombin stimulated platelets.

[3] = test system: erythropoesis; experiment: Effect on erythropoesis; set-up: species or system rats; conditions: rat, in vivo
Procedure: as §2

[4] = test system: fat pads isolated from rats; experiment: Glucose oxidation: formation of 14CO2 in fat pads isolated from rats; assay type: in vivo
Text: Insulin-dependent diabetes mellitus is frequently accompanied by insulin resistance. Frequently an impaired insulin action is also observed with streptozotocin induced diabetic rats. Such an insulin resistance is particularly also attributed to postreceptor defects.
With (a) untreated (normal) control animals (rats), (b) diabetic rats, and (c) diabetic brazilin treated rats glucose oxidation and lipogenesis were investigated (by means of the esterified lipids and the free fatty acids). Diabetes was induced by intravenous administration of streptozotocin (40 mg/kg live weight). Brazilin was administered intraperitoneally for 15 days (100 mg/kg body weight). Within the same period the same volume of saline solution was administered to the untreated animals of the control group.
For determining the effects of brazilin administration on the glucose oxidation, the method described by Winegard et al. (J. Biol. Chem. 233, 267 (1958)) was used, using ^14 C glucose (1-^14 C-glucose).

[5] = test system: thrombin stimulated platelets; experiment: Malon dialdehyde (MDA) production by thrombin stimulated platelets; assay type: in vivo, rats
Text: Thromboxane A2 is the potent substance inducing platelet aggregation. MDA is formed through the same enzyme system as thromboxane A2. Inhibition of MDA production may be due to the following factors:
as §3, §4, §5, §6, §7

[6] = test system: plasmalipid; conditions: spontaneously hypertensive rats; Fette-Seifen-Anstrichmittel 87, 74-76 (1985); cited from earlier work
[7] = Increase of the peripheral insulin action in diabetic mice; assay type: in vivo
Procedure: Diabetic mice were divided into a control group and a test group. A dose of 100 mg of brazilin per kg body weight was daily administered to the animals of the test group; instead of brazilin, the same amount of saline solution was injected intraperitoneally to the animals of the control group.
After 30 test days, the body weight of the animals of the test group was higher and the blood sugar values of these animals were lower as compared to the diabetic animals of the control group.
On the 30th test day, the animals were made to fast for 5 h; thereupon, they were injected intravenously with 0.46 mU/g of NPH insulin. Then, the blood sugar values were measured at respective intervals of 5 min.

[8] = test system: lysosomal glycosidases; experiment: Normalizing effect on lysosomal glycosidases (overall); assay type: in vivo; conditions: kidney, diabetic mice
Text: Possibly, the lysosomal glycosidases active in the kidneys are involved in the micro-angiopathy accompanying diabetes mellitus. Therefore, the lysosomal glycosidase activities upon administration of brazilin and full extract were examined.
A number of mice was divided into three groups. Group I, which was used as control group, remained untreated. To the rest of the mice diabetes was induced by administering alloxan. Part of these diabetic mice remained untreated (diabetic control group II); to the rest of the diabetic mice a dose of 100 mg of brazilin per kg body weight was administered daily. After a test period of 10 and 30 days, respectively, kidney tissue was taken from the laboratory animals and the enzyme fraction was determined. In particular, incubation was carried out for 30 min at 37° C., the reaction was stopped by adding 0.05M glycine-NaOH buffer solution (pH 10.4), centrifugation was carried out at 3000 U/min for 10 min, and the amount of p-nitrophenol formed per min and per mg of protein was determined spectrophotometrically at 410 nm at the supernatant.

[9] = test system: blood viscosity; experiment: Blood viscosity; assay type: in vivo, rats
Procedure: as §1, §2
The blood viscosity was determined by means of heparinized blood samples relative to distilled water at 37°±0.5° C. The time interval required by 2 ml of liquid to pass between two points of a narrow glass capillary was determined.

[10] = diabetic rats vs. control group
[11] = diabetic mice, 100 mg/kg daily, 30 days

## Oc1ccc2c(c1)OC[C@]1(O)Cc3cc(O)c(O)cc3[C@H]21 [brazilin]
[1]; alloxan diabetic rats + brazilin, P < 0.01 vs. untreated and vs. diabetic control (17.4)
  Filtration rate: 19.6 ± 0.4 mL/min
[1]; diabetic rats + brazilin
  effect on filtration rate of diabetic animals: significant increase of the filtration rate
[1]; [10]
  effect on erythrocyte deformability: significant increase of the erythrocyte deformability
[1]; normal rats + brazilin 100 mg/kg i.p. 10 days, normal 22.9
  Filtration rate: 23.1 ± 0.3 mL/min
[1]; untreated control group + brazilin
  effect on filtration rate of normal animals: did not signficantly influence the filtration rate
[2]; diabetic rats + brazilin, diabetic control 0.19
  6-Keto PG F α: 0.18 ± 0.03 ng/mg
[2]; normal rats + brazilin, normal control 0.18
  6-Keto PG F α: 0.17 ± 0.02 ng/mg
[2]; rats
  influence on the prostacyclin production: no influence on the prostacyclin production could be observed
[3]
  effect on erythropoesis: no effect on erythropoesis
[4]; diabetic rats + brazilin
  restoration of initial CO2 production, basal: 74.6%
[4]; diabetic rats + brazilin 100 mg/kg i.p. 15 days, n=8, P < 0.01 vs. diabetic control, diabetic 109.1, normal 172.8
  Glucose→CO2, basal: 156.6 ± 14.7 nmol/100 mg tissue/120 min
[4]; diabetic rats + brazilin, insulin 25 ng/ml
  restoration of initial CO2 production, insulin stimulated: 14.5%
[4]; insulin 25 ng/ml, diabetic rats + brazilin, n=8, P < 0.1 vs diabetic control, diabetic 236.6, normal 694.2
  Glucose→CO2, insulin stimulated: 303.1 ± 19.0 nmol/100 mg tissue/120 min
[5]; Group B, thrombin 0,2 I. un., normal control 4.16
  MDA: 0.58 ± 0.30 nmol/10 platelets
[5]; Group B, thrombin 1,0 I. un., normal control 2.46
  MDA: 1.02 ± 0.48 nmol/10 platelets
[5]; Group D, thrombin 0,2 I. un., diabetic control 2.86
  MDA: 0.76 ± 0.21 nmol/10 platelets
[5]; Group D, thrombin 1,0 I. un., diabetic control 3.38
  MDA: 1.10 ± 0.31 nmol/10 platelets
[5]; normal rats + brazilin 110 mg/kg daily (Group B), thrombin 5,0 I. un., normal control 5.16
  MDA: 2.20 ± 0.58 nmol/10 platelets
[5]; rats, 110 mg/kg daily
  inhibition of MDA production: inhibiting effect on MDA production
[6]
  plasmalipid-reducing effect: plasmalipid-reducing effect
[7]; brazilin treated diabetic mice, 0.46 mU/g NPH insulin, day 30, 5 h fasted (FIG. 5)
  blood sugar after i.v. NPH insulin: marked decrease of the blood sugar values
[7]; [11]
  blood sugar values vs. diabetic control: lower
  body weight vs. diabetic control: higher
[8]
  effect on the lysosomal glycosidase activity: normalizing effect
[9]; alloxan diabetic rats + brazilin, P < 0.05 vs. diabetic control (1.62)
  Viscosity: 1.52 ± 0.07 cP
[9]; [10]
  effect on blood viscosity of diabetic animals: significant decrease of the blood viscosity; also recorded: significant decrease (P<0.05) of blood viscosity
[9]; normal + brazilin vs. normal
  effect on blood viscosity of normal animals: No statistical differences
[9]; normal rats + brazilin 100 mg/kg i.p. 10 days, 37° C., normal 1.45
  Viscosity: 1.40 ± 0.06 cP
